The values that follow come from ChEMBL document CHEMBL1138508, “Design, synthesis, and pharmacological effects of a cyclization-activated steroid prodrug for colon targeting in inflammatory bowel disease” (J Med Chem, 2009).

One may read the Papp B→A as the apparent permeability from the basolateral to the apical side of a cell layer. As a reminder, the half-life is the time needed for the level to fall by half in the phase considered.

Data set [1] has as its system Mus musculus. Nature of the data set: Inhibition of dextran sodium sulfate-induced ulcerative colitis in BALB/c mouse assessed as decrease in disease activity index at 5 mg/kg, po twice daily for 6 days relative to control. The class given is functional, organism-based. The arrangement: dose 5 mg/kg.
Data set [2] deals with Mus musculus. In words: Inhibition of dextran sodium sulfate-induced ulcerative colitis in BALB/c mouse assessed as decrease in colon shortening at 5 mg/kg, po twice daily for 6 days relative to control. The class given is functional, organism-based. The arrangement: dose 5 mg/kg.
A short description of data set [3]: Stability at pH 8 to 9 after 24 hrs. Type of data set: physicochemical. The settings on record: buffer, pH 8, 24 h.
Data set [4] is described as follows: Apparent permeability from basolateral to apical side in human Caco-2 cells by HPLC. Type of data set: ADME, cell-based. On the technique in general: Passage across Caco-2 layers is used to estimate intestinal permeability.
The test system of data set [5] is Mus musculus. In words: Toxicity in dextran sodium sulfate treated BALB/c mouse ulcerative colitis model assessed as reduction in thymus weight to body weight ratio at 5 mg/kg, po administered twice daily for 6 days relative to control. The class given is organism-based. Conditions: in vivo, 144 h. The arrangement: dose 5 mg/kg, route oral.
A short description of data set [6]: Stability at pH 3.4 to 7.4 after 24 hrs. The class given is physicochemical. The settings on record: buffer, pH 3.4, 24 h.
Data set [7] relates to Mus musculus. In words: Inhibition of dextran sodium sulfate-induced ulcerative colitis in BALB/c mouse assessed as decrease in body weight loss at 5 mg/kg, po twice daily for 6 days relative to control. Details: dose 5 mg/kg. The class given is functional, organism-based.
Data set [8] can be described thus: Stability in human gastric juice after 24 hrs. The class given is ADME, tissue-based.
The nature of data set [9]: Chemical stability assessed as half life at neutrality pH. The class given is physicochemical.
Data set [10] deals with Mus musculus. Nature of the data set: Inhibition of dextran sodium sulfate-induced ulcerative colitis in po dosed BALB/c mouse assessed as decrease in disease activity index administered twice daily for 6 days relative to control. The class given is functional, organism-based.
Data set [11] has as its system Mus musculus. In words: Inhibition of dextran sodium sulfate-induced ulcerative colitis in po dosed BALB/c mouse assessed as decrease in colon shortening administered twice daily for 6 days relative to control. Type of data set: functional, organism-based.
The subject of data set [12] is Mus musculus. Nature of the data set: Toxicity in dextran sodium sulfate treated po dosed BALB/c mouse ulcerative colitis model assessed as reduction in thymus weight to body weight ratio administered twice daily for 6 days relative to control. The class given is organism-based. The settings on record: in vivo, 144 h.
Data set [13] deals with Mus musculus. In words: Inhibition of dextran sodium sulfate-induced ulcerative colitis in po dosed BALB/c mouse assessed as decrease in body weight loss administered twice daily for 6 days relative to control. The class given is functional, organism-based.
Data set [14] in a line: Stability assessed as half life at pH 7.4 by HPLC. The class given is physicochemical. Conditions: buffer.
Data set [15] can be described thus: Stability assessed as half life at pH 4 by HPLC. Type of data set: physicochemical. Conditions: buffer.
The nature of data set [16]: Stability assessed as half life at pH 8 by HPLC. The class given is physicochemical. Conditions: buffer.
Data set [17] in a line: Stability assessed as half life at pH 2.6 by HPLC. The settings on record: buffer. The class given is physicochemical.

Activity calls are given as the source filed them.

As for `C[C@]12C=CC(=O)C=C1CC[C@@H]1[C@@H]2[C@@H](O)C[C@@]2(C)[C@H]1CC[C@]2(O)C(=O)COC(=O)CCc1ccccc1/N=N/c1ccc(O)c(C(=O)O)c1`, the outcome with Mus musculus [1], in the data set on Mus musculus [2] and with Mus musculus [7] was Active. Also, the figures for the Stability result in [3], in data set [6] and in [8] were “Unstable”, “Stable” and “Stable”, respectively. Besides, the basolateral-to-apical permeability (Papp B→A) in data set [4] was found to be 14 ×10⁻⁶ cm/s. For the same molecule, in the data set on Mus musculus [5], the Activity result is reported as “Non-toxic”.
For `COC(=O)CCc1ccccc1N`, in data set [9], the half-life was found to be 57 min.
In the case of `C[C@]12C=CC(=O)C=C1CC[C@@H]1[C@@H]2[C@@H](O)C[C@@]2(C)[C@H]1CC[C@]2(O)C(=O)CO` [PREDNISOLONE], the result in the data set on Mus musculus [10], with Mus musculus [11] and in the data set on Mus musculus [13] was Active. Besides, the Activity result in the data set with Mus musculus [12] is on record as “Toxic”.
With `C[C@]12CCC(=O)C=C1CC[C@@H]1[C@@H]2[C@@H](O)C[C@@]2(C)[C@H]1CC[C@]2(O)C(=O)COC(=O)CCc1ccccc1N`, the half-life in data set [14] came to 73 min; in data set [15], 30 min; in data set [16], 44 min; in data set [17], 54 min.
Take `C[C@]12C=CC(=O)C=C1CC[C@@H]1[C@@H]2[C@@H](O)C[C@@]2(C)[C@H]1CC[C@]2(O)C(=O)COC(=O)Cc1ccccc1/N=N/c1ccc(O)c(C(=O)O)c1`: the result in the data set with Mus musculus [1], in the data set with Mus musculus [2] and in the data set on Mus musculus [7] was inactive. In the data set with Mus musculus [5], the Activity result is “Non-toxic”.
